Experimental findings from ChEMBL document CHEMBL1155550, “Rationale design of biotinylated antimalarial endoperoxide carbon centered radical prodrugs for applications in proteomics” (J Med Chem, 2010) are described below.

The first assay has as its system Plasmodium falciparum. Description: Antiplasmodial activity against chloroquine-sensitive Plasmodium falciparum 3D7 infected in human erythrocytes assessed as inhibition of [3H]hypoxanthine incorporation after 48 hrs by liquid scintillation counting. Type of assay: functional, organism-based.
Settings: not given; call rule not given here
As to `O=C(CCCC[C@@H]1SC[C@@H]2NC(=O)N[C@@H]21)NS(=O)(=O)c1cccc(CNC(=O)C23CC4CC(C2)[C@]2(OO[C@]5(CCCCC5)O2)C(C4)C3)c1`, the IC50 result is on record as “Not Active”.

Staying with this assay, now noted: Plasmodium falciparum, 3D7; read-out: IC50.
Turning to `CC(C)(C)OC(=O)NCc1cccc(CNC(=O)C23CC4CC(C2)[C@]2(OO[C@]5(CCCCC5)O2)C(C4)C3)c1`, the IC50 was determined as 5.1 nM.

As for `O=C(NCCCC[C@H]1SC[C@H]2NC(=O)N[C@H]21)NCc1cccc(CNC(=O)C23CC4CC(C2)[C@]2(OO[C@]5(CCCCC5)O2)C(C4)C3)c1`, the IC50 stood at 2.4 nM.

`O=C(NCc1cccc(CNC(=O)C23CC4CC(C2)[C@]2(OO[C@]5(CCCCC5)O2)C(C4)C3)c1)OCC1c2ccccc2-c2ccccc21`: the IC50 is 27 nM.

Turning to `O=C(O)C12CC3CC(C1)[C@]1(OO[C@]4(CCCCC4)O1)C(C3)C2`, the 50% inhibitory concentration (IC50) is 150 nM.

Turning to `COC(=O)C12CC3CC(C1)[C@]1(OO[C@]4(CCCCC4)O1)C(C3)C2`, the IC50 stood at 5.7 nM.

Regarding `OCC12CC3CC(C1)[C@]1(OO[C@]4(CCCCC4)O1)C(C3)C2`, the half-maximal inhibitory concentration (IC50) was 8.4 nM.

With `C[C@H]1[C@@H](CCOC(=O)NCCCCC[C@@H]2SC[C@@H]3NC(=O)N[C@@H]32)O[C@@H]2O[C@]3(C)CC[C@H]4[C@H](C)CC[C@@H]1[C@@]24OO3`, the IC50 was 1.6 nM.

With `C[C@H]1[C@@H](CC(=O)NCc2cccc(CNC(=O)c3ccc(S(=O)(=O)NC(=O)CCCC[C@@H]4SC[C@@H]5NC(=O)N[C@@H]54)cc3)c2)O[C@@H]2O[C@]3(C)CC[C@H]4[C@H](C)CC[C@@H]1[C@@]24OO3`, the IC50 is over 1000 nM.

In the case of `C[C@H]1[C@@H](CC(=O)NCc2cccc(CNC(=O)CCSSCCNC(=O)CCCC[C@@H]3SC[C@@H]4NC(=O)N[C@@H]43)c2)O[C@@H]2O[C@]3(C)CC[C@H]4[C@H](C)CC[C@@H]1[C@@]24OO3`, the IC50 was found to be 91 nM.
